# Patent US6887878B2, “KMST isoeugenol derivatives and pharmaceutical activity” (Ing-Jun Chen, priority 2003, dated 2005)
# Read-outs that look alike come from different tables or passages of the source.
# What was measured:
# [1] = test system: serotonin-induced human platelet aggregation; assay: serotonin-induced human platelet aggregation; assay type: cell-based
# Protocol: (§1) Venous blood from human volunteer donors was collected in 10 ml Monovette containing 1 ml citrate solution (0.106M trisodium citrate; Sarstedt, Nümbrecht, Germany) and centrifuged (400 g, 10 min, 20° C.). […] After centrifugation (10 min, 2000 g, 20° C.), the platelet pellet was resuspended in wishing buffer (113 mM NaCl, 4 mM Na2HPO4, 24 mM NaH2PO4, 4 mM KCl, 0.2 mM EGTA(Ethylene glycol-bis-(2-aminoethyl ether) N,N,N′-tetraacetic acid), 0.1% (wt/vol) glucose, pH 6.0) and recentrifuged (10 min, 2000 g, 20° C.). The washed platelets were resuspended in incubation buffer (134 mM NaCl, 12 mM NaHCO3, 2.9 mM KCl, 0.34 mM NaH2PO4, 5 mM HEPES (N-(2-hydroxyethyl) piperazine-N′-(2-ethanesulfonic acid)), 5 mM glucose, pH7.4), cells were counted in a Sysmex hematology analyzer (Sysmex, CDA-500, Japan) and adjusted to a final concentration of 2×10^8 platelets/ml.
# (§2) The aggregation of the platelets in platelet-rich plasma (PRP) was measured as a change in light absorbance by a Payton dual-channel aggregometer (NBS, Hema tracer, Japan). PRP (240 μL) was stirred (700 rpm) at 37° C. for 1 min, and 5 μL epinephrine (final concentration 5 μM), serotonin (final concentration 5 μM) was added. After which the rate of primary aggregation (1/min) and maximum aggregation (%) at 5 min were recorded. To study the effects of compounds on epinephrine or serotonin-induced aggregation, PRP was incubated with 5 μL of compounds at various concentrations for 1 min before epinephrine or serotonin was added. IC50 values given were calculated from the secondary aggregation data.
# 5-HT1A = molecular target: T1, 5-HT1A (Rattus norvegicus, UniProt P19327); assay: [3H]WAY100635 receptor binding
# T1 sequence (P19327 1-422): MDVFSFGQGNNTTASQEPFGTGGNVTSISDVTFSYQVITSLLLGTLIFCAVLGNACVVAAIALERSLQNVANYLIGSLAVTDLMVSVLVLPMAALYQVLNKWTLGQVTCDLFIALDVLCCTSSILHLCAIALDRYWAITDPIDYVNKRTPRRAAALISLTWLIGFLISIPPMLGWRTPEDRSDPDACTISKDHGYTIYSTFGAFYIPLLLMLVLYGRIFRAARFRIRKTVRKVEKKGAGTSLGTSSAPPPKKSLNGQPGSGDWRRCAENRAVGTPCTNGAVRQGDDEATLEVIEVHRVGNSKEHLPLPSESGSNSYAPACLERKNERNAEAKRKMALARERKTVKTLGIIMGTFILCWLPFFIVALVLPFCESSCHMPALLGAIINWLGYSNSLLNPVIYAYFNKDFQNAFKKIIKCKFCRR
# 5-HT1B = molecular target: T2, 5-HT1B (Rattus norvegicus, UniProt P28564); assay: [3H]GR125743 receptor binding in rat cortex; set-up: species or system Wistar rat
# T2 construct: from tissue; host or cells: Wistar rat cortex membranes
# T2 sequence (P28564 whole entry): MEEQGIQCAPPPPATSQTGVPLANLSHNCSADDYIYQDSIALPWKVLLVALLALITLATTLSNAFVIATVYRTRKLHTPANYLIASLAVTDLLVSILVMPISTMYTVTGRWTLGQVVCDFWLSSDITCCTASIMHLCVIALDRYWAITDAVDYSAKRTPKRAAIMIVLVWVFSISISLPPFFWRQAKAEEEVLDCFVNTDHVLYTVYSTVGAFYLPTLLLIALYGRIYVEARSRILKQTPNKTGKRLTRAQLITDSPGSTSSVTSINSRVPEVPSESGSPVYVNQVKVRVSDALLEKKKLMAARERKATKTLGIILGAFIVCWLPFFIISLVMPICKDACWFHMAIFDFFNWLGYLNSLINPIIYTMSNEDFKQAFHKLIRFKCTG
# Protocol: (§3) The homogenate was pressure filtered through muslin. Filtrate was centrifuged at 1000 g for 10 min. […] Protein content was determined by Bradford's method.
# α1-adrenergic receptor = assay: noradrenaline-induced contraction in isolated rat thoracic aorta (pA2); set-up: species or system Wistar rat; settings: Schild plot, mean ± SEM of eight
# Protocol: Clonidine, noradrenaline and serotonin (10^−8˜10^−4 M) were added to the bath to induce contractions after pretreatment with KMST for 15 min.
# α1 receptors = assay: [3H]prazosin receptor binding in rat cortex; set-up: species or system Wistar rat
# Protocol: as §3
# α2 receptors = assay: [3H]yohimbine receptor binding in rat cortex; set-up: species or system Wistar rat
# Protocol: as §3
# [2] = test system: epinephrine-induced human platelet aggregation; assay: epinephrine-induced human platelet aggregation; assay type: cell-based; settings: epinephrine 5 μM, PRP
# Protocol: as §1, §2
# β2 receptors = molecular target: T3, β2 receptors (Rattus norvegicus, UniProt P10608); assay: [3H]CGP-12177 receptor binding in rat lung; set-up: species or system Wistar rat; settings: [3H]CGP-12177, rat lung
# T3 construct: from tissue; host or cells: Wistar rat lung membranes
# T3 sequence (P10608 whole entry): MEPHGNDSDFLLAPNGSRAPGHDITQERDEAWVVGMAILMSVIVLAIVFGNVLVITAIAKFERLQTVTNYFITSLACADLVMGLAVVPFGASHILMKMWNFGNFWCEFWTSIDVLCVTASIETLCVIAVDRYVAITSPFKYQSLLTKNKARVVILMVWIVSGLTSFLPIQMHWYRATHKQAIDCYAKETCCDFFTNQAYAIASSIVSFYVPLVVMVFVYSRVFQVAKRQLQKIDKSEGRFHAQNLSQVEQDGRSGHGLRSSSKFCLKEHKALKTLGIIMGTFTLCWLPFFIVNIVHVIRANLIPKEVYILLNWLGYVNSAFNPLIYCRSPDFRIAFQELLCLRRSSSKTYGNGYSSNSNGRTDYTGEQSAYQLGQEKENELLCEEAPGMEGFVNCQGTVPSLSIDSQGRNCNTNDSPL
# Protocol: as §3
# β1 receptors = molecular target: T4, β1 receptors (Rattus norvegicus, UniProt P18090); assay: [3H]CGP-12177 receptor binding in rat ventricle; set-up: species or system Wistar rat; settings: [3H]CGP-12177, rat ventricle
# T4 construct: from tissue; host or cells: Wistar rat heart (ventricle) membranes
# T4 sequence (P18090 whole entry): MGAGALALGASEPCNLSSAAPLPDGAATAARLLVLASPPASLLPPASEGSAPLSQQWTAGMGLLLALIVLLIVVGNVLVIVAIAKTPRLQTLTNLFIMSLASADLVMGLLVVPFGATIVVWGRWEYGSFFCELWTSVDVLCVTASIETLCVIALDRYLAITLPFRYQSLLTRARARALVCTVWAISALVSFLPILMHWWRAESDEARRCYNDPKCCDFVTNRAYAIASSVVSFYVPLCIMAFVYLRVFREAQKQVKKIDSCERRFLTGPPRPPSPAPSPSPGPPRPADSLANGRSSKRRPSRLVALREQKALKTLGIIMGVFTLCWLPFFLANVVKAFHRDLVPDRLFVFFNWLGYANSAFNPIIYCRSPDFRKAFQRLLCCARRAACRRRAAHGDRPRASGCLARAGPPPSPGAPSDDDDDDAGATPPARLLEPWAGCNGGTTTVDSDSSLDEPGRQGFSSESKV
# Protocol: as §3
# M2 = M2 receptor binding; set-up: species or system guinea pig
# 5-HT2A receptor = 5-HT2A receptor (Rattus norvegicus, UniProt P14842); assay: [3H]ketanserin receptor binding in rat cortex; set-up: from tissue; host or cells: Wistar rat cortex membranes; species or system Wistar rat
# Chain of 5-HT2A receptor (P14842 whole entry): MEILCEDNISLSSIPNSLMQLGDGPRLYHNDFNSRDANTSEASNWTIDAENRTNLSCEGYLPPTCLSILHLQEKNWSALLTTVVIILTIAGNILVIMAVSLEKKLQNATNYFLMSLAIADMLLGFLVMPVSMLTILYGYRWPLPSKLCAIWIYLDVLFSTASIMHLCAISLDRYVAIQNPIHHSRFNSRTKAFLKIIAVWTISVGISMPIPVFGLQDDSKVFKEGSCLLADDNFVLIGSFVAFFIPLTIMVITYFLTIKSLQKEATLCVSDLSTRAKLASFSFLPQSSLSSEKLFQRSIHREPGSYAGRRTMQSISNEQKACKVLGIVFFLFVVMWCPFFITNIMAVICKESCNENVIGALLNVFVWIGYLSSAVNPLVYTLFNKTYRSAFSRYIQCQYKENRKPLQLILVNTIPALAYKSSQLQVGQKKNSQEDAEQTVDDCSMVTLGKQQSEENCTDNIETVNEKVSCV
# Protocol: as §3
# [3] = test system: phenylephrine-induced contractions in rat thoracic aorta; assay: LPS-induced vascular hyporeactivity: phenylephrine-induced contractions in rat thoracic aorta; assay type: in vivo, Wistar rat
# [4] = LPS-induced blood glucose changes; assay type: in vivo, rat; settings: for LPS-induced early hyperglycemia: at 1 and 3 hours; for LPS-induced hypoglycemia: at 5 hours
# Protocol: (§4) In brief, Wistar rats weighing 250-300 g were anesthetized with pentobarbital sodium (50 mg kg^−1, i.p.). Following tracheal cannulation, systemic arterial BP and HR were recorded from the femoral artery by a pressure transducer (model P10EZ; Spectramed, Oxnard, Calif., U.S.A.) connected to a recorder (GOULD, Valley View, Ohio, Model P50). Body temperature was maintained at 37° C. by an electric heating pad. A femoral vein was cannulated for intravenous injection of drugs and LPS (10 mg kg^−1).
# (§5) Blood was collected from venous cannula, injected into ice-cold heparinized Eppendorf tubes and centrifuged at 1500 rpm for 10 min at 4° C. Plasma supernatant was stored at −70° C. until analyzed. Solid phase enzyme immunoassay that specifically detects murine IL-1β, IL-6, IFN-γ and TNF-α was used with a detection limit of >10 pg/ml (Endogen, U.S.A). Pre-treatment with KMST and other agents was performed 15 minutes before intravenous injection of LPS. Blood was collected from venous cannula. Blood glucose was measured with a glucose test strip (Glucotide, Bayer, U.S.A) at 1, 3 and 5 hours.
# [5] = test system: lipid peroxidation in rat brain homogenate; assay: lipid peroxidation initiated by Fe2+-ascorbic acid in rat brain homogenates (TBARS); assay type: biochemical; settings: rat brain homogenates; read-out: IC50 inhibiting lipid peroxidation initiated by Fe2+-ascorbic acid
# Protocol: Rat brain homogenate was made in 0.9% saline containing 10 mg tissue/ml. The rates of membrane lipid peroxidation were measured by the formation of thiobarbituric acid (TBA)-reactive substance (TBARS). Rat brain homogenates (1 ml) were incubated at 37° C. for 5 min with 10 μl of test compound or vehicle. […] After 30 min of incubation, the reaction was stopped by adding 0.1 ml of 0.2% BHT. TBA reagent was then added and the mixture was heated for 30 min in a boiling water bath. […] The amount of TBARS was quantified using the linear regression obtained from malondialdehyde (MDA) standards.
# [6] = test system: IL-1β, IL-6, IFN-γ and TNF-α; assay: LPS-induced plasma cytokine immunoreactivity; assay type: in vivo, rat
# Protocol: as §4, §5
# anesthetized rats [7] = assay: LPS-induced hypotension; assay type: in vivo, Wistar rat; settings: pretreatment, intravenous LPS
# Protocol: as §4
# anesthetized rats [8] = assay: intra-cisternal injection and NTS microinjection, BP and HR; assay type: in vivo, rat; settings: central administration
# Protocol: Intra-cisternal injections of KMST (0.3, 0.03 μmol), yohimbine [0.03 μmol), and clonidine (38 pmol), were performed in rats as described by Duan et al (1987). Briefly, rats weighing 250-300 g were anaesthetized with pentobarbital sodium (50 mg kg^−1, i.p.) and mounted in a David-Kopf stereotaxic instrument (Yeh J L. et al., Brain. Res. Bull., 30:641-648, 1993). The calvarium was exposed and a 1 mm diameter trephine hole was drilled 1.8 mm lateral to the coronary and 1.5 mm posterior to the sagittal sutures. A cannula (0.7 mm O.D.) connected to a Hamilton syringe (RN-705, 5051) by PE-50 was advanced 4.7 mm into the brain using the electrode carrier.
# Rats were anesthetized and placed in a David-Kopf stereotaxic instrument. The cerebellum was exposed after removing the skin and occipital bone. The NTS coordinates were (reference to lambda) P 5-6 mm, L/R 0.5-1 mm, depth 6-7.5 mm (Wu et al., 1994). NTS injection sites were confirmed by decreasing BP and HR following micro-injection of 1% L-glutamate. […] Pre-treatment with clonidine was performed 15 min before administration of test agents. At the end of experiments, the animals were sacrificed. The brain was removed and sectioned for histological confirmation of the drug application site.
# [9] = [3H]GR125743 (5-HT1B/1D), rat cortex, read-out: Ki 5-HT1B
# [10] = serotonin 5 μM, PRP, read-out: IC50 serotonin-induced human platelet aggregation
# [11] = read-out: Ki 5-HT1A, [3H]WAY100635
# [12] = agent given after LPS injection (1 hr), pD2 to phenylephrine
# [13] = agent given before LPS injection (30 min), pD2 to phenylephrine
# [14] = after LPS injection (1 hr), 15 mg kg-1
# [15] = before LPS injection (30 min), 1 mg kg-1
# [16] = before LPS injection (30 min), 15 mg kg-1
molecule,measurement,setting,value
"O=C(c1ccc(F)cc1)C1CCN(CCn2c(=O)[nH]c3ccccc3c2=O)CC1 [Ketanserin, reference compound]",IC50,"[1]; Homo sapiens, Platelet, read-out: IC50 serotonin-induced platelet aggregation",10 nM
same,Ki,5-HT1A,> 10000 nM
same,Ki,5-HT1B; [9],> 10000 nM
same,α1 pA2 value,α1-adrenergic receptor,7.74 ± 0.32
same,Ki,α1 receptors,15.8 nM
same,Ki,α2 receptors,2270 nM
CC=Cc1ccc(OCC(O)CN2CCN(c3ccc(Cl)cc3)CC2)c(OC)c1 (centres unmarked) [Compound 2],IC50,[2],3900 nM
same,Ki,β2 receptors,> 10000 nM
same,IC50,[1]; [10],4.73 nM
same,Ki,5-HT1A; [11],> 10000 nM
same,Ki,5-HT1B; [9],1090 nM
same,Ki,β1 receptors,106 nM
same,Ki,M2,> 10000 nM
same,Ki,α1 receptors,47 nM
same,Ki,5-HT2A receptor,2.99 nM
same,Ki,α2 receptors,1970 nM
Isoeugenolol [reference compound],Ki,β2 receptors,6860 nM
same,Ki,β1 receptors,209 nM
same,Ki,α1 receptors,> 10000 nM
same,Ki,5-HT2A receptor,585 nM
same,Ki,α2 receptors,> 10000 nM
"CC(CCc1ccccc1)NCC(O)c1ccc(O)c(C(N)=O)c1 (centres unmarked) [Labetalol, reference compound]",Ki,β1 receptors,4.17 nM
same,Ki,α1 receptors,52.5 nM
"Cl.N=C(N)NN [Aminoguanidine, aminoguanidine HCl]",pD2 at 3rd hr,[3]; [12],6.48 ± 0.13
same,pD2 at 5th hr,[3]; [12],5.81 ± 0.14
same,pD2 at 3rd hr,[3]; [13],6.81 ± 0.17
same,pD2 at 5th hr,[3]; [13],5.44 ± 0.31
same,LPS-induced early hyperglycemia,[4],inhibited
same,LPS-induced hypoglycemia,[4],did not affect
same,IC50,[5],> 100000 nM
"NCCc1c[nH]c2ccc(O)cc12 [Compound 5-HT, 5-Hydroxytryptamine]",Ki,α1 receptors,> 10000 nM
same,Ki,α2 receptors,> 10000 nM
CC(C)NCC(O)COc1ccc(CC(N)=O)cc1 (centres unmarked) [Atenolol],Ki,α1 receptors,> 10000 nM
same,Ki,α2 receptors,> 10000 nM
"CCCCCCCCCOc1ccc2[nH]cc(CCN)c2c1 [5-nonyloxytryptamine, reference compound]",Ki,5-HT1B,5.81 nM
O=C1O[C@H]([C@@H](O)CO)C(O)=C1O [Ascorbic acid],pD2 at 3rd hr,[3]; [14],6.64 ± 0.16
same,pD2 at 5th hr,[3]; [14],5.21 ± 0.12
same,pD2 at 3rd hr,[3]; [15],7.07 ± 0.25
same,pD2 at 5th hr,[3]; [15],5.04 ± 0.28
same,pD2 at 3rd hr,[3]; [16],6.71 ± 0.13
same,pD2 at 5th hr,[3]; [16],5.11 ± 0.22
same,LPS-induced production of IFN-γ,[6]; 1 hour after LPS administration,insignificantly enhanced
same,LPS-induced early hyperglycemia,[4],inhibited
same,LPS-induced hypoglycemia,[4],did not affect
same,IC50,[5],7150 ± 140 nM
O=c1n(CCCN2CCN(c3cccc(Cl)c3)CC2)nc2ccccn12 [Trazodone],aortic hyporeactivity and second prolonged hypotensive reaction induced by LPS,anesthetized rats [7],inhibited
same,BP and HR after intra-cisternal injection and NTS microinjection,anesthetized rats [8],increased BP and HR
same,pD2 at 3rd hr,[3]; [12],6.01 ± 0.09
same,pD2 at 5th hr,[3]; [12],5.04 ± 0.11
same,pD2 at 3rd hr,[3]; [13],6.29 ± 0.21
same,pD2 at 5th hr,[3]; [13],3.99 ± 0.16
same,"LPS-induced elevations of IL-1β, IL-6, IFN-γ and TNF-α levels","[6]; 1 mg kg−1, i.v., pretreatment",reduced only IL-1β and TNF-α
Methsergide [reference compound],Ki,5-HT1A; [11],> 10000 nM
same,Ki,5-HT1B; [9],> 10000 nM
same,Ki,α1 receptors,> 10000 nM
same,Ki,α2 receptors,2430 nM
CC=Cc1ccc(OCCCN2CCN(c3cccc(Cl)c3)CC2)c(OC)c1 [Compound 3],IC50,[2],4.38 nM
same,Ki,β2 receptors,> 10000 nM
same,IC50,[1]; [10],530 nM
same,Ki,5-HT1A; [11],> 10000 nM
same,Ki,5-HT1B; [9],770 nM
same,Ki,β1 receptors,113 nM
same,Ki,M2,> 10000 nM
same,Ki,α1 receptors,142 nM
same,Ki,5-HT2A receptor,3.11 nM
same,Ki,α2 receptors,9290 nM
Isoeugenodilol [reference compound],Ki,β2 receptors,53.7 nM
same,Ki,β1 receptors,43.6 nM
same,Ki,α1 receptors,38.9 nM
same,Ki,5-HT2A receptor,1010 nM
same,Ki,α2 receptors,9700 nM
